From ChEMBL document CHEMBL1156098, “Antitumor agents 269. Non-aromatic ring-A neotanshinlactone analog, TNO, as a new class of potent antitumor agents” (2009)

Legend:
Format in all cases: functional
MDA-MB-231 = assay: Cytotoxicity against human MDA-MB-231 cells after 3 days by SRB assay; details: MDA-MB-231, 72 h, read-out: ED50 (the source's name)
ZR-75-1 = assay: Cytotoxicity against human ZR-75-1 cells after 3 days by SRB assay; details: ZR-75-1, 72 h, read-out: ED50 (the source's name)
A549 = assay: Cytotoxicity against human A549 cells after 3 days by SRB assay; details: A549, 72 h, read-out: ED50 (the source's name)
[1] = Cytotoxicity against human KBVIN cells after 3 days by SRB assay; details: 72 h, read-out: ED50 (the source's name)
SK-BR-3 = assay: Cytotoxicity against human SK-BR-3 cells after 3 days by SRB assay; details: SK-BR-3, 72 h, read-out: ED50 (the source's name)
DU-145 = assay: Cytotoxicity against human DU145 cells after 3 days by SRB assay; details: DU-145, 72 h, read-out: ED50 (the source's name)
KB = assay: Cytotoxicity against human KB cells after 3 days by SRB assay; details: 72 h, read-out: ED50 (the source's name)

Row | Structure (SMILES) | EC50 (MDA-MB-231) [µM] | EC50 (ZR-75-1) [µM] | EC50 (A549) [µM] | EC50 [1] [µM] | EC50 (SK-BR-3) [µM] | EC50 (DU-145) [µM] | EC50 (KB) [µM]
1 | Cc1cccc2c1ccc1c3occ(C)c3c(=O)oc21 | 37.9 | 1.1 | 54.2 | > 37 | 0.8 | 58.3 | > 37
2 | CCc1cccc2c(O)c(-c3occ(C)c3C(=O)O)ccc12 | > 37 | 1 | 35.8 | 23.6 | 3.4 | 29.4 | 30.7
3 | Cc1coc2c1c(=O)oc1c3c(ccc12)CCC3 | > 37 | > 37 | > 37 | > 37 | > 60 | > 37 | > 37
4 | Cc1coc2c1c(=O)oc1c3c(ccc12)CCCC3 | 38.6 | 8.3 | 10.2 | 10.2 | 5.1 | 32.7 | 31.5
5 | CCOc1c(-c2occ(C)c2CO)ccc2c1CCCC2(C)C | 39.8 | 14.3 | 22.9 | 15.3 | 9.9 | 17.5 | 16.9
6 | Cc1coc(-c2ccc3c(c2O)CCCC3(C)C)c1C(=O)O | 24.7 | 1.7 | 3.3 | 4.7 | 0.7 | 3 | 4.7
7 | Cc1coc(-c2ccc3c(c2O)CCC3)c1C(=O)O | 44.6 | 30.2 | 41.5 | 30.2 | 30.2 | 38.4 | 31.4
8 | CCOCc1c(C)coc1-c1ccc2c(c1OC)CCCC2(C)C | 42.7 | 19.8 | 22.9 | 16.5 | 19.8 | 17.7 | 21.6
9 | COc1c(-c2occ(C)c2C(=O)O)ccc2c1CCCC2(C)C | > 61 | 41.4 | 53.5 | 47.8 | 25.5 | 34.1 | 43.3
10 | Cc1coc(-c2ccc3c(c2O)CCCC3)c1C(=O)O | 73.5 | 21.7 | 57 | 29.4 | 32.4 | 40.4 | 50
11 | COc1c(-c2occ(C)c2COC(C)=O)ccc2c1CCCC2(C)C | 55.6 | 15.5 | 28.7 | 24.9 | 14 | 16.7 | 25.4
12 | COc1c(-c2occ(C)c2CO)ccc2c1CCCC2(C)C | 28.3 | 15 | 23.3 | 21.7 | 23.7 | 21.7 | 25.3
13 | Cc1coc2c1c(=O)oc1c3c(ccc12)C(C)(C)CCC3 | > 37 | 32.3 | 28 | 34.4 | 35.8 | 31.9 | 30.5
14 | COC(=O)c1c(C)coc1-c1ccc2c(c1OC)CCCC2(C)C | 61 | 34.5 | 61 | 52.1 | 27.1 | 33.5 | 53.4
15 | COCc1c(C)coc1-c1ccc2c(c1OC)CCCC2(C)C | 47.8 | 14.3 | 19.4 | 20.1 | 18.5 | 17.5 | 11.5
16 | Cc1coc(-c2ccc3c(c2O)CCCC3(C)C)c1CO | 39.5 | 25.5 | 24.5 | 19.9 | 21.3 | 22.7 | 22
